Measured values published in ChEMBL document CHEMBL1201862, “PubChem BioAssay data set” (2004).
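48-hour exposure; five concentrations; linearly interpolated endpoints. At the GI50, growth is halved.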 Active and inactive are the calls of the source. No stated cut-off is given here; in the data, active = GI50 up to about 1.1 µM and inactive = higher.

Key:
Assay in all cases: NCI tumour cell line growth inhibition, 48 h
SK-MEL-28 = tested on: SK-MEL-28
KM-20L2 = tested on: KM-20L2
HCT-15 = tested on: HCT-15
COLO 205 = tested on: COLO 205
K562 = tested on: K562
CCRF-CEM = tested on: CCRF-CEM
U-251 = tested on: U-251
EKVX = tested on: EKVX
OVCAR-4 = tested on: OVCAR-4
SW-620 = tested on: SW-620
OVCAR-8 = tested on: OVCAR-8
UACC-62 = tested on: UACC-62
UACC-257 = tested on: UACC-257
SK-OV-3 = tested on: SK-OV-3
HCT-116 = tested on: HCT-116
A498 = tested on: A498
IGROV-1 = tested on: IGROV-1
SF-539 = tested on: SF-539
SF-268 = tested on: SF-268
MCF7 = tested on: MCF7

SMILES	GI50 (SK-MEL-28)	GI50 (KM-20L2)	GI50 (HCT-15) [µM]	GI50 (COLO 205)	GI50 (K562)	GI50 (CCRF-CEM)	GI50 (U-251)	GI50 (EKVX)	GI50 (OVCAR-4)	GI50 (SW-620)	GI50 (OVCAR-8)	GI50 (UACC-62)	GI50 (UACC-257)	GI50 (SK-OV-3)	GI50 (HCT-116)	GI50 (A498)	GI50 (IGROV-1)	GI50 (SF-539)	GI50 (SF-268)	GI50 (MCF7)
CC1(C)C(O)C[C@@H](O)[C@@]2(C)C1CC[C@]1(C)C2C[C@@H](O)[C@@H]2C([C@@]3(C)CC[C@@H](C(C)(C)O)O3)CCC21C (stereo partly specified)	13.8 µM (inactive)	17.5 µM (inactive)	12.6	16.4 µM (inactive)	35.2 µM (inactive)	17.8 µM (inactive)	12.9 µM (inactive)	24.9 µM (inactive)	22.4 µM (inactive)	16.5 µM (inactive)	18.7 µM (inactive)	9.93 µM (inactive)	21 µM (inactive)	15.9 µM (inactive)	17 µM (inactive)	17.3 µM (inactive)	14.5 µM (inactive)	14.2 µM (inactive)	17.2 µM (inactive)	
CCOC(=O)/C=C(\C)c1ccc(OC)cc1	> 100 µM (inactive)	> 100 µM (inactive)	> 100	> 100 µM (inactive)			> 100 µM (inactive)	> 100 µM (inactive)	> 100 µM (inactive)	> 100 µM (inactive)	> 100 µM (inactive)		> 100 µM (inactive)		> 100 µM (inactive)	89.3 µM (inactive)	> 100 µM (inactive)	> 100 µM (inactive)	> 100 µM (inactive)	
CCCCCCCCCCOC(=O)NCCC	28.8 µM (inactive)	22.8 µM (inactive)	21	40.5 µM (inactive)	29.9 µM (inactive)	18.5 µM (inactive)	24.9 µM (inactive)	25.9 µM (inactive)	21.6 µM (inactive)	48.6 µM (inactive)	30.5 µM (inactive)	38.5 µM (inactive)	30.2 µM (inactive)	54.8 µM (inactive)		31.7 µM (inactive)	64.1 µM (inactive)	59.7 µM (inactive)	29.1 µM (inactive)	
Nc1nc(SCCNC(=O)CCc2ccc(O)c(I)c2)nc2c1ncn2C1OC(CO)C(O)C1O (stereo unspecified)	> 100 µM (inactive)	> 100 µM (inactive)	> 100	> 100 µM (inactive)	> 100 µM (inactive)	> 100 µM (inactive)	> 100 µM (inactive)	> 100 µM (inactive)	> 100 µM (inactive)	> 100 µM (inactive)	> 100 µM (inactive)	> 100 µM (inactive)	> 100 µM (inactive)	> 100 µM (inactive)	> 100 µM (inactive)	> 100 µM (inactive)	> 100 µM (inactive)	> 100 µM (inactive)	> 100 µM (inactive)	
COc1ccc(/C=N/N=C(N)N)c(C(=O)O)c1OC	> 100 µM (inactive)	> 100 µM (inactive)	> 100	> 10 µM (inactive)	> 100 µM (inactive)	> 100 µM (inactive)	> 100 µM (inactive)	> 100 µM (inactive)	> 100 µM (inactive)	> 100 µM (inactive)	> 100 µM (inactive)	> 100 µM (inactive)	> 100 µM (inactive)	> 100 µM (inactive)	> 100 µM (inactive)	> 100 µM (inactive)	> 10 µM (inactive)	> 100 µM (inactive)	> 100 µM (inactive)	
CC(=O)NC1=C[C@@H]([C@H]2COC(C)(C)O2)OC1=O	> 100 µM (inactive)	> 100 µM (inactive)	> 100	> 100 µM (inactive)	> 100 µM (inactive)	> 100 µM (inactive)	> 100 µM (inactive)	> 100 µM (inactive)		> 100 µM (inactive)	> 100 µM (inactive)	> 100 µM (inactive)	> 100 µM (inactive)	> 100 µM (inactive)	> 100 µM (inactive)	> 100 µM (inactive)	> 100 µM (inactive)	> 100 µM (inactive)	> 100 µM (inactive)	> 100 µM (inactive)
CCOC(=O)c1csc(NC(=O)CCN(CC)CC)n1	27.5 µM (inactive)		27.6	33.8 µM (inactive)	71 µM (inactive)	27.5 µM (inactive)	81.3 µM (inactive)	63.2 µM (inactive)	57.4 µM (inactive)	27.2 µM (inactive)	30.7 µM (inactive)	45 µM (inactive)	28.1 µM (inactive)	> 100 µM (inactive)		91.2 µM (inactive)	39.7 µM (inactive)	26.9 µM (inactive)		26 µM (inactive)
